Literature values as cited in patent publication US6379706B2, “Rapidly disintegrating coated pellets with delayed release” (Roche Diagnostics GmbH, priority 1996, dated 2002).

Conditions: for solubility (in words): aqueous medium

COc1ccccc1OCCNCC(O)COc1cccc2[nH]c3ccccc3c12 (racemic) [Carvedilol, (+/−)-1-(9H-carbazol-4-yloxy)-3-[(2-(2-methoxyphenoxy)-ethyl)-amino]-2-propanol]
solubility (in words): poorly soluble
solubility in the intestinal juice (in words) (intestinal juice): particularly poorly soluble

CC(C)(Oc1ccc(CCNC(=O)c2ccc(Cl)cc2)cc1)C(=O)O [Bezafibrat, 2-{4-[2-[(4-chloro-benzoyl)-amino]ethyl]-phenoxy}-2-methylpropionic acid]
solubility (in words): poorly soluble

Cc1cccc(Nc2ccncc2S(=O)(=O)NC(=O)NC(C)C)c1 [Torasemid, 1-isopropyl-3-[(4-m-toluidino-3-pyridyl)sulfonyl]-urea]
solubility (in words): poorly soluble
